Assay results from US11680047B2, “Enhanced erythropoiesis and iron metabolism” (FibroGen, Inc., priority 2003, dated 2023).

Columns and labels:
Type in all cases: cell-based, human
[1] = tested on: Ceruloplasmin (CP); assay: Microarray gene expression in Hep3B cells: ceruloplasmin; conditions: 2 μM
Procedure: (§1) Hep3B cells (ATCC No. HB-8064) were grown in DMEM containing 8% fetal bovine serum. Hep3B cells were seeded into 6-well culture dishes at ˜500,000 cells per well. After 8 hours, the media was changed to DMEM containing 0.5% fetal bovine serum and the cells were incubated for an additional 16 hours. Compound B or compound D was added to the cells (2 μM final concentration) and the cells were incubated for various times. Control cells (no compound treatment, addition of DMSO alone) were harvested at 0, 6 and 48 hours. Harvested cells were assessed for cell viability (GUAVA), or added to RNA extraction buffer (RNeasy, Qiagen) and stored at −20° C. for subsequent RNA purification. Replicate microarrays were generated using RNA isolated from replicate experiments conducted on different days. Total RNA was isolated from cells using the RNeasy kit (Qiagen).
(§2) RNA was precipitated in 0.3 M sodium acetate (pH 5.2), 50 ng/ml glycogen, and 2.5 volumes of ethanol for one hour at −20° C. Samples were centrifuged and pellets were washed with cold 80% ethanol, dried, and resuspend in water. Double stranded cDNA was synthesized using a T7-(dT)24 first strand primer (Affymetrix, Inc., Santa Clara Calif.) and the SUPERSCRIPT CHOICE system (Invitrogen) according to the manufacturer's instructions. The final cDNA was extracted with an equal volume of 25:24:1 phenol:chloroform:isoamyl alcohol using a PHASE LOCK GEL insert (Brinkman, Inc., Westbury N.Y.). The aqueous phase was collected and cDNA was precipitated using 0.5 volumes of 7.5 M ammonium acetate and 2.5 volumes of ethanol. Alternatively, cDNA was purified using the GENECHIP sample cleanup module (Affymetrix) according to the manufacturer's instructions.
(§3) Biotin-labeled cRNA was synthesized from the cDNA in an in vitro […] (IVT) reaction using a BIOARRAY HighYield RNA transcript labeling kit (Enzo Diagnostics, Inc., Farmingdale N.Y.) according to the manufacturer's instructions. Final labeled product was purified and fragmented using the GENECHIP sample cleanup module (Affymetrix) according to the manufacturer's instructions.
(§4) Hybridization cocktail was prepared by bringing […] probe to […] in 1× hybridization buffer (100 mM MES, 1 M [Na^+], 20 mM EDTA, 0.01% Tween 20), 100 µg/ml herring sperm DNA, 500 µg/ml acetylated BSA, 0.03 nM contol oligo B2 (Affymetrix), and 1×GENECHIP eukaryotic hybridization control (Affymetrix). The cocktail was sequentially incubated at 99° C. for 5 minutes and 45° C. for 5 minutes, and then centrifuged for 5 minutes. The Human Genome U133A array (Affymetrix) was brought to room temperature and then prehybridized with 1× hybridization buffer at 45° C. for 10 minutes with rotation. The buffer was then replaced with […] hybridization cocktail and the array was hybridized for 16 hours at 45° C. at 60 rpm with counter balance. Following hybridization, arrays were washed once with 6×SSPE, 0.1% Tween 20, and then washed and stained using R-phycoerythrin-conjugated streptavidin (Molecular Probes, Eugene Oreg.), goat anti-streptavidin antibody (Vector Laboratories, Burlingame Calif.), and a GENECHIP Fluidics Station 400 instrument (Affymetrix) according to the manufacturer's micro_1v1 protocol (Affymetrix). Arrays were analyzed using a GENEARRAY scanner (Affymetrix) and Microarray Suite software (Affymetrix).
(§5) The Human Genome U133A array (Affymetrix) represents all sequences in the Human Unigene database build 133 (National Center for Biotechnology Information, Bethesda Md.), including approximately 14,500 well-characterized human genes.
(§6) RNA quality was monitored by capillary electrophoresis (Agilent Bioanalyzer). Hybridization cocktails were prepared as described (Affymetrix), and hybridized to Affymetrix human U133A arrays containing 22,283 probe sets. Array performance was analyzed with Affymetrix MicroArray Suite (MAS) software and individual probe sets were assigned “present”, “marginal, and “absent” calls according to software defaults. […]

[2] = tested on: E-selectin; assay: TNF-α induced E-selectin expression in HUVEC; conditions: 1 ng/ml TNF-α, various concentrations, 1 day
Excerpt: Endothelial E-selectin belongs to the selectin family of cellular adhesion molecules mediating the initial attachment of leukocytes to vascular endothelial cells in inflammatory events. IL-1β, TNF-α, and lipopolysaccharides each induce the expression of E-selectin. (See, e.g., Bevilacqua et al. (1987) Proc Natl Acad Sci USA 84:9238-9242 and Bevilacqua and van Furth (1993) J Leukoc Biol 54:363-378.) To investigate the effect of HIF prolyl hydroxylase inhibition on TNF-α induced E-selectin expression, HUVECs were stimulated with 1 ng/ml TNF-α in the absence or presence of various concentrations of compound B or compound C for 1 day. E-selectin and VCAM expression were then measured.

[3] = tested on: Transferrin Receptor (TFR2); assay: Microarray gene expression in Hep3B cells: transferrin receptor 2; conditions: 2 μM
Procedure: as §1, §2, §3, §4, §5, §6

O=C(O)CNC(=O)c1ncc2cc(Oc3ccccc3)ccc2c1O [Compound B, [(4-Hydroxy-7-phenoxy-isoquinoline-3-carbonyl)-amino]-acetic acid]
Ceruloplasmin (CP) fold-increase in mRNA levels above control, first data point ([1]; 1 hr): 1.142 fold | Ceruloplasmin (CP) fold-increase in mRNA levels above control, second data point ([1]; 1 hr): 0.946 fold | Ceruloplasmin (CP) fold-increase in mRNA levels above control, first data point ([1]; 3 hr): 1.123 fold | Ceruloplasmin (CP) fold-increase in mRNA levels above control, second data point ([1]; 3 hr): 0.955 fold | Ceruloplasmin (CP) fold-increase in mRNA levels above control, first data point ([1]; 6 hr): 1.555 fold | Ceruloplasmin (CP) fold-increase in mRNA levels above control, second data point ([1]; 6 hr): 1.103 fold | Ceruloplasmin (CP) fold-increase in mRNA levels above control, first data point ([1]; 12 hr): 2.366 fold | Ceruloplasmin (CP) fold-increase in mRNA levels above control, second data point ([1]; 12 hr): 2.507 fold | Ceruloplasmin (CP) fold-increase in mRNA levels above control, first data point ([1]; 24 hr): 5.136 fold | Ceruloplasmin (CP) fold-increase in mRNA levels above control, second data point ([1]; 24 hr): 4.909 fold | Ceruloplasmin (CP) fold-increase in mRNA levels above control, first data point ([1]; 48 hr): 5.82 fold | Ceruloplasmin (CP) fold-increase in mRNA levels above control, second data point ([1]; 48 hr): 4.678 fold | inhibition of TNF-α induced E-selectin expression [2]: dose-dependent inhibition of TNF-α induced VCAM and E-selectin expression | Transferrin Receptor (TFR2) fold-increase in mRNA levels above control ([3]; 1 hr): 0.575 fold | Transferrin Receptor (TFR2) fold-increase in mRNA levels above control ([3]; 3 hr): 0.558 fold | Transferrin Receptor (TFR2) fold-increase in mRNA levels above control ([3]; 6 hr): 0.822 fold | Transferrin Receptor (TFR2) fold-increase in mRNA levels above control ([3]; 12 hr): 1.253 fold | Transferrin Receptor (TFR2) fold-increase in mRNA levels above control ([3]; 24 hr): 2.522 fold | Transferrin Receptor (TFR2) fold-increase in mRNA levels above control ([3]; 48 hr): 4.169 fold
